Assay [1] deals with T1, CBX1 chromodomain (Homo sapiens, UniProt P83916).
T1 construct: occupied by CBX1 chromodomain at a concentration of 110 µM; 6xHis (N); made in house
In words: Isothermal titration calorimetry of peptide binding to CBX1 chromodomain. The settings on record: ITC, 25 °C, 1.1 mM peptide into 110 µM CBX1 chromodomain; for Kd: 200mM NaCl, 10% glycerol, 50mM Tris pH 8.0, single binding site model. The method, then:
(§1) 7. Expression and purification of lysine methyltransferases and Chromodomains […]
17. Isothermal Titration Calorimetry
Isothermal titration calorimetry (ITC) was performed with an ITC200 instrument (MicroCal, Malvern). Experiments were conducted at 25 °C while stirring at 750 rpm. Buffers of protein […]
were matched to 200mM NaCl, 10% glycerol, and 50mM Tris pH 8.0. Each titration was performed as follows: one initial injection of 0.4 µL for 0.8 seconds, followed by 19 injections of 2.0 µL for 4 seconds, with ≥2 mins between each injection. The initial injection was discarded prior to data analysis. The microsyringe (40µL) was loaded with 1.1 mM peptide and injected into the cell (200µL), occupied by CBX1 chromodomain at a concentration of 110 µM. Data was fitted to a single binding site model using Microcal ITC200 Software with Origin Lab 7.
(§2) KDM4A mammalian expression plasmid in CMV vector was purchased from Addgene (plasmid #24180). Full-length G9a in pCDNA3 vector was kind from Prof. Minkui Luo at the Memorial Sloan-Kettering Cancer Center. HEK293T/17 cells (ATCC) were grown in a T25 containing Delbucco’s Modified Eagle Medium (DMEM) (Corning) with 10% FBS at 37 °C, 5% CO2, and 95% relative humidity. When cells reached 80% confluency, 5 µg of plasmid and 10 µg

In another assay the test system is KDM4A. As to the kind of experiment: Demethylase activity of wild type KDM4A on peptide substrates (MALDI-TOF MS). Particulars: 10 µM enzyme, 10 µM peptide, 1 mM 2OG, 50 mM Tris pH 8, 37°C, three hours. It counts as biochemical, human. The method, then:
fritted syringe was rocked for 2-4 hours at room temperature using a fixed angle rocker (Fisher 07202202). After cleavage, the solvent was ejected from the syringe into a 50mL Falcon tube, leaving behind the resin in the syringe. Nitrogen gas was bubbled through the solution to remove roughly 50% of the TFA prior to precipitation via -80°C diethyl ether for 5-10 minutes (Acros #326860010). Precipitate was then pelleted via centrifugation (Sorvall Legend XTR) at 3000 rpm for 5 mins. Supernatant was decanted. Crude peptide was then resuspended in 0.1% TFA prior to purification and characterization as described for peptides from the peptide facility. The integrity of the purified peptides was confirmed by MALDI-TOF MS. The complete list is in Table S1.
3. Expression and purification of wild type KDM4A-E […]
bacterial expression construct pNIC28-Bsa4 (Addgene ID: 38846) was obtained from Addgene […]
E. Coli BL21 (DE3) competent cells (Invitrogen) using pNIC28-Bsa4 kanamycin-resistant vector.
A single colony was picked up and grown overnight at 37 °C in 10 mL of Luria-Bertani (LB) broth in the presence of 50 μg/mL kanamycin and 35 μg/mL chloramphenicol. The culture was diluted 100-fold and allowed to grow at 37 °C to an optical density (OD600) of 0.8, and protein expression was induced overnight at 17 °C with 0.6 mM IPTG in an Innova 44® Incubator shaker (New Brunswick Scientific). Proteins were purified as follows: harvested cells were resuspended in 15 mL lysis buffer (50 mM Tris-HCl pH 8.0, 200 mM NaCl, 5 mM b-mercaptoethanol, 10% glycerol, 25 mM imidazole, Lysozyme, DNase, and Roche protease inhibitor cocktail). […]
After passing 20 volumes of washing buffer (50 mM Tris-HCl pH 8.0, 200 mM NaCl, 5 mM b-mercaptoethanol, 10% glycerol, and 25 mM imidazole), proteins were eluted with a buffer containing 50 mM Tris-HCl pH 8.0, 200 mM NaCl, 5 mM b-mercaptoethanol, 10% glycerol, and 400 mM imidazole. […] The protein concentration was determined […]
8.0, 200 mM NaCl, and 10% glycerol. […] The protein concentration was determined using Bradford assay kit (BioRad Laboratories) with BSA as a standard. […]

Another assay concerns KDM4A-E. In words: Demethylase activity of KDM4 subfamily on peptide substrates (MALDI-TOF MS), result worded for KDM4A-E together. The settings on record: wild-type KDM4A-E, 10 µM enzyme, 10 µM peptide, 1 mM 2OG, 50 mM Tris pH 8, 37°C, three hours. The assay is classed as biochemical, human.
For assay [2], the target named is T1, CBX1 chromodomain. In words: Isothermal titration calorimetry of peptide binding to CBX1 chromodomain. Particulars: ITC, T 288.15 K in Table S6.
In the next assay the test system is G9a. As to the kind of experiment: Methylation of eIF4A3-K374 peptides by KMT (MALDI-TOF MS). The assay is classed as biochemical. The settings on record: 20 µM KMT, 10 µM peptide, 200 µM SAM. How it is done: as §1
16. Methylation activity of wild type KMTs on eIF4A3-K374me0/1/2 peptides 20 µM lysine methyltransferase, 10 µM eIF4A3-me0/1/2 peptide and 200 µM SAM were incubated at room temperature for 1-2 hours in 50 mM Tris pH 8.0. Reaction was stopped by storing the microcentrifuge tubes on ice. After mixing, 0.8 µL of sample and 0.8 µL of α-cyano-4-hydroxycinnamic acid (CHCA) (dissolved in 50:50 0.1% TFA and acetonitrile) were combined on a MALDI plate. Samples were ionized using reflectron positive mode on Bruker Daltonics UltrafleXtreme MALDI TOF with detection carried out from 700-3500 m/z. Bruker Flex Analysis software was used to analyze the MALDI-TOF MS spectra.
17. Isothermal Titration Calorimetry […]
The microsyringe (40µL) was loaded with 1.1 mM peptide and injected into the cell (200µL), occupied by CBX1 chromodomain at a concentration of 110 µM. Data was fitted to a single binding site model using Microcal ITC200 Software with Origin Lab 7.
as §2

The next assay deals with KDM4A-I71AzF. In words: Demethylase activity of AzF mutant on peptide substrates (MALDI-TOF MS). It counts as biochemical, human. Particulars: 10 µM enzyme, 10 µM peptide, 1 mM 2OG, 50 mM Tris pH 8, 37°C, three hours.

Entries after “also recorded” stand apart in the source; their conditions may differ. Where a SMILES comes first, the peptide text is derived from it. Where no end group is shown, it is not given here. [ ]: non-standard residue; d: D form. Lys(Me3) = C[N+](C)(C)CCCC[C@H](N)C(=O)O; Lys(Me2) = CN(C)CCCC[C@H](N)C(=O)O; Lys(Me) = CNCCCC[C@H](N)C(=O)O

T1 sequence (P83916 21-79 limits assumed): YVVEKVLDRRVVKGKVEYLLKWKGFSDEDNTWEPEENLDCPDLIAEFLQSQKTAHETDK

Compound `CC[C@H](C)[C@H](NC(=O)[C@H](C)NC(=O)[C@@H](NC(=O)CNC(=O)[C@H](CCCC[N+](C)(C)C)NC(=O)[C@H](CCCNC(=N)N)NC(=O)CNC(=O)[C@H](Cc1ccc(O)cc1)NC(=O)[C@H](CCCNC(=N)N)NC(=O)CNC(=O)[C@H](CO)NC(=O)[C@H](CCCNC(=N)N)NC(=O)CN)C(C)C)C(=O)N[C@@H](CC(N)=O)C(=O)N[C@@H](Cc1ccccc1)C(=O)N[C@H](C(=O)N[C@@H](CCCCN)C(N)=O)C(C)C` [compound 13] (H-GRSGRYGR[Lys(Me3)]GVAINFVK-NH2) displayed a Kd at CBX1 chromodomain [1] of 23.2 ± 2 µM. Moreover, the “demethylation by KDM4A” value with KDM4A is on record as “indeed demethylated by KDM4A in vitro”. Moreover, in the assay with KDM4A-E, the “demethylation by KDM4A-E” value was “demethylated by multiple KDM4s; also recorded: robust demethylation”. In addition, at CBX1 chromodomain [2], the TΔS is on record as 2.472 kcal/mol, the ΔG was -6.230 kcal/mol, the ΔH is listed as -3.758 kcal/mol and the ΔS was determined as 8.58 cal/mol/degree.
At CBX1 chromodomain [1], `CC[C@H](C)[C@H](NC(=O)[C@H](C)NC(=O)[C@@H](NC(=O)CNC(=O)[C@H](CCCCN(C)C)NC(=O)[C@H](CCCNC(=N)N)NC(=O)CNC(=O)[C@H](Cc1ccc(O)cc1)NC(=O)[C@H](CCCNC(=N)N)NC(=O)CNC(=O)[C@H](CO)NC(=O)[C@H](CCCNC(=N)N)NC(=O)CN)C(C)C)C(=O)N[C@@H](CC(N)=O)C(=O)N[C@@H](Cc1ccccc1)C(=O)N[C@H](C(=O)N[C@@H](CCCCN)C(N)=O)C(C)C` [compound 23] (H-GRSGRYGR[Lys(Me2)]GVAINFVK-NH2) had a Kd of 95.2 ± 1.4 µM. Besides, the “demethylation by KDM4A” value in the assay with KDM4A is reported as “demethylated only to eIF4A3-K374me1 by KDM4A; also recorded: demethylated to Kme1 by KDM4A”. In the assay on G9a, the “methylation by G9a (in words)” value is on record as “methylated by G9a; also recorded: trimethylated by G9a”. Also, at CBX1 chromodomain [2], the TΔS is given as -1.106 kcal/mol, the ΔG is on record as -5.470 kcal/mol, the ΔH was -6.576 kcal/mol and the ΔS is -3.84 cal/mol/degree.
Regarding “GRSGRYGR[Lys(Me)]GVAINFVK [compound 22, eIF4A3-K374me1 peptide]”, on CBX1 chromodomain [1] (50mM Tris pH 8.0), the “binding to CBX1 chromodomain (in words)” value is reported as “no binding; also recorded: not bind to CBX1; also recorded: no detectable interaction”. For the same compound, the “demethylation by KDM4A” value in the assay on KDM4A is listed as “not demethylated by KDM4A; also recorded: failed to convert to Kme0”. Moreover, in the assay on G9a, the “methylation by G9a (in words)” value is on record as “methylated by G9a; also recorded: trimethylated by G9a”. At CBX1 chromodomain [2], this compound yielded a TΔS of 0 kcal/mol, a ΔG of 0 kcal/mol, a ΔH of 0 kcal/mol and a ΔS of 0 cal/mol/degree.
Turning to “KSAPSTGGVKme3KPHRYKPGTGK [compound 5, H3K36me3 peptide]”, in the assay with KDM4A-I71AzF, the “demethylation by I71AzF mutant” value is “modestly”.

The values above are taken from PMC10540216, “Activity Guided Azide-methyllysine Photo-trapping for Substrate Profiling of Lysine Demethylases” (Journal of the American Chemical Society, 2023).
